Laboratory results as given in article PMC10909431 (Journal of Peptide Science, 2023).
Like-named read-outs stand apart in the source and are kept apart here. Each block holds one molecule with its values, some of them ahead of it. Numbered stars: 1 amine (or outer) side, 2 acyl side, 3 side chain; on linkers, the order of the positions; unused ones are H or OH. Bridge positions count the residues as written; N and C are the ends. Square brackets hold non-standard residues; d marks the D form. Triazole bridges read from a SMILES are 1,4-linked. Ends that are not written are not given here. Peptide text beside a SMILES is read from it. Orn(N3) = [N-]=[N+]=NCCC[C@H](N)C(=O)O; S5 = C=CCCC[C@](C)(N)C(=O)O; X1 = c1c(C[*:2])nnn1CC[*:1]; Pra = C#CC[C@H](N)C(=O)O

Experiments:
IR‐A = target: T1, IR‐A (Homo sapiens, UniProt P06213); assay: Receptor-binding: competition with [125I]-monoiodotyrosyl-TyrA14-insulin for IR-A in IM-9 cell membranes; settings: cell membranes of human IM-9 lymphocytes, each curve in duplicate, Kd from at least three binding curves, ± S.D., SD
T1 construct: for IR‐A in cell membranes of human IM‐9 lymphocytes (ATCC); host or cells: human IM-9 lymphocytes (cell membranes)
T1 sequence (P06213 28-1370 isoform P06213-2 limits assumed): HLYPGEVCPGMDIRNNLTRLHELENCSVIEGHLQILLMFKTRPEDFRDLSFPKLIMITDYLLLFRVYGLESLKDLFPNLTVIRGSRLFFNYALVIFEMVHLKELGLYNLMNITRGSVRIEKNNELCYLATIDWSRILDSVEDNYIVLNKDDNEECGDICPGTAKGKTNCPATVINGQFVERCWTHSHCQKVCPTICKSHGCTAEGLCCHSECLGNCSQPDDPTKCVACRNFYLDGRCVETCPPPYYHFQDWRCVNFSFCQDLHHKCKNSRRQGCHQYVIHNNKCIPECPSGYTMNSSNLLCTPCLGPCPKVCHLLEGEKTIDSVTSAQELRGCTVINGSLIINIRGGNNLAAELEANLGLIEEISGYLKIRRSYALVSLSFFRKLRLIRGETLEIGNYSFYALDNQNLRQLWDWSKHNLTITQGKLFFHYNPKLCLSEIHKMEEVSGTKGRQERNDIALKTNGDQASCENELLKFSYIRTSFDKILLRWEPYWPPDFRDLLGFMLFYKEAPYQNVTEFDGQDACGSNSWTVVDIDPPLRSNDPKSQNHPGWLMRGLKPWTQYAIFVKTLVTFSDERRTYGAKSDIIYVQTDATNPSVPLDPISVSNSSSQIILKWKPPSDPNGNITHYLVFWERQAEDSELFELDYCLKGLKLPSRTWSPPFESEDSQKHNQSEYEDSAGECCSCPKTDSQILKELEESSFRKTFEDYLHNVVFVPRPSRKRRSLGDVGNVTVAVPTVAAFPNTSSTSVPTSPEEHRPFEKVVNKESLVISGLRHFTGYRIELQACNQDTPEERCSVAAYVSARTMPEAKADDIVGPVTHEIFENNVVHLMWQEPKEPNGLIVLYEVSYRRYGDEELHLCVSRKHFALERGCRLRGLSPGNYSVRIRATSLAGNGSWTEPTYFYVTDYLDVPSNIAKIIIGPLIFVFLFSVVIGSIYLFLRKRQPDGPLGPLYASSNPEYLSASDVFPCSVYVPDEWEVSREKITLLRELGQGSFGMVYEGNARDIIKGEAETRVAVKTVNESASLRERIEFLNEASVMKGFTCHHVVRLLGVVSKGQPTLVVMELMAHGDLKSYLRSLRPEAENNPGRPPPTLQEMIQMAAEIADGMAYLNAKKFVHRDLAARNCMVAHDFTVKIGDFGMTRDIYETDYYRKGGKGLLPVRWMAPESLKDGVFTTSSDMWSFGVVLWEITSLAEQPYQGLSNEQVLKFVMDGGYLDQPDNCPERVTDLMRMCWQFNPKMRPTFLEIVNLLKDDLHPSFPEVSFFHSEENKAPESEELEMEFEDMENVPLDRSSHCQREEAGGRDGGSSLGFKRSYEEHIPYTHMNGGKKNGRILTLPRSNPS
T1 sequence (P06213 763-1382 partner limits assumed): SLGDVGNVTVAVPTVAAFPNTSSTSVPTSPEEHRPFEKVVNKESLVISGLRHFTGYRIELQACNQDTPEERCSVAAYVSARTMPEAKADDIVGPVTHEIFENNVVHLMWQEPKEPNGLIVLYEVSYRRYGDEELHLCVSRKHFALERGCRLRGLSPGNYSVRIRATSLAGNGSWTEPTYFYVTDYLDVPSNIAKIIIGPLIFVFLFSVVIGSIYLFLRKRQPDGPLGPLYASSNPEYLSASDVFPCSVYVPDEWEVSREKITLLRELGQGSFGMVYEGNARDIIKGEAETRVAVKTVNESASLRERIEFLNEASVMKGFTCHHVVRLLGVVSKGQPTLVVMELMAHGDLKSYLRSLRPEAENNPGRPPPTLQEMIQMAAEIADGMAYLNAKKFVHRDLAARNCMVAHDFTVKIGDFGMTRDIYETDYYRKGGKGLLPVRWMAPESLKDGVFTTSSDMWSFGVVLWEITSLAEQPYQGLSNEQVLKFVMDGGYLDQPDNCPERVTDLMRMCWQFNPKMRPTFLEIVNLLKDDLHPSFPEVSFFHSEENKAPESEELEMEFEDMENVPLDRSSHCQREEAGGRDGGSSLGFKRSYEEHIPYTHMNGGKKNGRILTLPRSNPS
Procedure: The binding curve of each analog was determined in duplicate, and the final dissociation constant (K d) was calculated from at least three binding curves.

IR [1] = settings: cited from earlier work
Text: (§1) Scientific teams from Novo Nordisk A/S and Antyra, Inc., used the technique of expressing libraries of peptide sequences on the surface of bacteriophage and, by testing their binding affinities, discovered a number of peptides that bound very efficiently to IR while activating or inhibiting it.[19], [20]

[2] = tested on: insulin effect on plasma glucose; settings: cited from earlier work
Text: as §1, with “[20] […] One of these peptides was […] or S592, which bound only to bindi ...” for “[20]”

[3] = tested on: insulin‐stimulated lipogenesis in cells; settings: cited from earlier work
Text: as §1, with “[20] […] One of these peptides was […] or S592, which bound only to bindi ...” for “[20]”

IR [4] = settings: cited from earlier work; for agonistic or antagonistic activities: peptides tested separately

Kd (IR‐A): 3.9 ± 1 nM
Molecule: CC[C@H](C)[C@H](NC(=O)[C@H](CCC(N)=O)NC(=O)[C@H](C)NC(=O)[C@H](Cc1c[nH]c2ccccc12)NC(=O)[C@H](CCC(=O)O)NC(=O)[C@H](CCC(=O)O)NC(=O)[C@H](CCC(=O)O)NC(=O)[C@H](CC(C)C)NC(=O)[C@@H](N)CO)C(=O)N[C@@H](CCC(=O)O)C(=O)N[C@H]1CSSC[C@@H](C(=O)N2CCC[C@H]2C(=O)N[C@@H](CO)C(N)=O)NC(=O)CNC(=O)[C@H](CCCNC(=N)N)NC(=O)CNC(=O)[C@H](Cc2c[nH]c3ccccc23)NC(=O)[C@H](C(C)C)NC(=O)[C@H](CCC(=O)O)NC1=O [peptide 1] (H-SLEEEWAQIECEVWGRGCPS-NH2; disulfide 11-18)

Kd (IR‐A): 49 ± 6 nM
Molecule: CC[C@H](C)[C@H](NC(=O)[C@H](CCC(N)=O)NC(=O)[C@H](C)NC(=O)[C@H](Cc1c[nH]c2ccccc12)NC(=O)[C@H](CCC(=O)O)NC(=O)[C@H](CCC(=O)O)NC(=O)[C@H](CCC(=O)O)NC(=O)[C@H](CC(C)C)NC(=O)[C@@H](N)CO)C(=O)N[C@@H](CCC(=O)O)C(=O)N[C@@]1(C)CCCC=CCCC[C@@](C)(C(=O)N2CCC[C@H]2C(=O)N[C@@H](CO)C(N)=O)NC(=O)CNC(=O)[C@H](CCCNC(=N)N)NC(=O)CNC(=O)[C@H](Cc2c[nH]c3ccccc23)NC(=O)[C@H](C(C)C)NC(=O)[C@H](CCC(=O)O)NC1=O [peptide 2] (H-SLEEEWAQIE[S5]EVWGRG[S5]PS-NH2; staple 11-18)

Kd (IR‐A): 15 ± 3 nM
Molecule: CC[C@H](C)[C@H](NC(=O)[C@H](CCC(N)=O)NC(=O)[C@H](C)NC(=O)[C@H](Cc1c[nH]c2ccccc12)NC(=O)[C@H](CCC(=O)O)NC(=O)[C@H](CCC(=O)O)NC(=O)[C@H](CCC(=O)O)NC(=O)[C@H](CC(C)C)NC(=O)[C@@H](N)CO)C(=O)N[C@@H](CCC(=O)O)C(=O)N[C@H]1CCCn2cc(nn2)C[C@@H](C(=O)N2CCC[C@H]2C(=O)N[C@@H](CO)C(N)=O)NC(=O)CNC(=O)[C@H](CCCNC(=N)N)NC(=O)CNC(=O)[C@H](Cc2c[nH]c3ccccc23)NC(=O)[C@H](C(C)C)NC(=O)[C@H](CCC(=O)O)NC1=O [peptide 3] (H-SLEEEWAQIE[Orn(N3)]EVWGRG[Pra]PS-NH2; triazole 11-18)

Kd (IR‐A): 25 ± 7 nM
Molecule: CC[C@H](C)[C@H](NC(=O)[C@H](CCC(N)=O)NC(=O)[C@H](C)NC(=O)[C@H](Cc1c[nH]c2ccccc12)NC(=O)[C@H](CCC(=O)O)NC(=O)[C@H](CCC(=O)O)NC(=O)[C@H](CCC(=O)O)NC(=O)[C@H](CC(C)C)NC(=O)[C@@H](N)CO)C(=O)N[C@@H](CCC(=O)O)C(=O)N[C@H]1CSCCn2cc(nn2)CSC[C@@H](C(=O)N2CCC[C@H]2C(=O)N[C@@H](CO)C(N)=O)NC(=O)CNC(=O)[C@H](CCCNC(=N)N)NC(=O)CNC(=O)[C@H](Cc2c[nH]c3ccccc23)NC(=O)[C@H](C(C)C)NC(=O)[C@H](CCC(=O)O)NC1=O [peptide 4] (H-SLEEEWAQIECEVWGRGCPS-NH2; linker 11-18 via X1)

Kd (IR‐A): 75 ± 29 nM
Molecule: CC[C@H](C)[C@H](NC(=O)[C@H](CCC(N)=O)NC(=O)[C@H](C)NC(=O)[C@H](Cc1c[nH]c2ccccc12)NC(=O)[C@H](CCC(=O)O)NC(=O)[C@H](CCC(=O)O)NC(=O)[C@H](CCC(=O)O)NC(=O)[C@H](CC(C)C)NC(=O)[C@@H](N)CO)C(=O)N[C@@H](CCC(=O)O)C(=O)N[C@H]1CSCCn2cc(nn2)COC[C@@H](C(=O)N2CCC[C@H]2C(=O)N[C@@H](CO)C(N)=O)NC(=O)CNC(=O)[C@H](CCCNC(=N)N)NC(=O)CNC(=O)[C@H](Cc2c[nH]c3ccccc23)NC(=O)[C@H](C(C)C)NC(=O)[C@H](CCC(=O)O)NC1=O [peptide 5] (H-SLEEEWAQIECEVWGRGSPS-NH2; linker 11-18 via X1)

Molecule: #SLEEEWAQIE C EVYGR C PPSES‐amide (disulfide) [IM172N22, peptide representing the Site 2 part of IM459]
Kd (IR [1]; read-out: binding affinity): 3.1 nM

Molecule: #SLEQEWaKIE C EVYGK C PPKKAyKWFERQLK‐amide (disulfide) [IM459, variant of S519 with several modifications, IR agonist]
ability to activate IR (IR [1]): retains the ability to activate IR (agonist)

Molecule: GSLDESFYDWFERQLGGGSGGSSLEEEWAQIQ C EVWGRG C PSY (disulfide) [S961, Site 1–linker–Site 2 fusion peptide with free C-terminus, IR antagonist]
binding affinities for IR (IR [1]): native insulin‐like binding affinities
inhibition of the insulin effect on plasma glucose in mice [2]: fully inhibit
inhibition of insulin‐stimulated lipogenesis in cells [3]: fully inhibit

Molecule: GSLDESFYDWFERQLGGGSGGSSLEEEWAQIQ C EVWGRG C PSY‐amide (disulfide) [S661, Site 1–linker–Site 2 fusion peptide with amidated C-terminus, IR antagonist]
binding affinities for IR (IR [1]): native insulin‐like binding affinities
inhibition of the insulin effect on plasma glucose in mice [2]: fully inhibit
inhibition of insulin‐stimulated lipogenesis in cells [3]: fully inhibit

Molecule: GSLDESFYDWFERQLGGGSGGSSLEEEWAQIQSEVWGRGSPSY-NH2 [Cys → Ser in S661, S661 variant with cysteines mutated to serines, without the disulfide bridge]
change of antagonistic activity versus S661 (IR [4]; inhibition of insulin-stimulated IR phosphorylation in cells): eightfold decrease

Molecule: GSLDESFYDWFERQLGKK [S371]
agonistic or antagonistic activities (IR [4]): did not detect any agonistic or antagonistic activities

Molecule: SLEEEWAQ-NH2 [N-terminal segment peptide of the Site 2 mimetics, without the cyclized part]
Kd (IR [1]; read-out: binding affinity): 900 nM

Molecule: SLEEEWAQIE C EVWGRG C PSY (disulfide) [S592]
activation of the receptor (IR [1]): does not activate the receptor
Kd (IR [1]; read-out: K d for binding to the IR): 1.7 nM

Molecule: SLEEEWAQIQSEVWGRGSPSYC [Cys → Ser in S592, Site 2 peptide with Cys-to-Ser mutations produced by Brandt et al]
insulin signal remaining (IR [4]; 1 nM insulin, peptide at the concentration 100 nM): 50–60%
agonistic or antagonistic activities (IR [4]): did not detect any agonistic or antagonistic activities

Molecule: SLEEEWAQVE C EVYGRG C PSGSLDESFYDWFERQLG (disulfide) [S519, Site 2–Site 1 fusion peptide, IR agonist]
agonism / antagonism of IR (IR [1]): did not show antagonistic effects and instead agonized IR
binding to IR (IR [1]): very high affinity
